Consider six molecules from ChEMBL document CHEMBL5727270, “Macrocyclic immunomodulators” (2019).

pIC50: −log10 of the molar value. Some results are limits rather than exact numbers.

The target in the test is Programmed cell death 1 ligand 1 (Homo sapiens, UniProt Q9NZQ7). The experiment in a line: Enzyme-Linked Immunosorbent Assay - ELISA: 96 Well plates were coated with 1 μg/mL of human PD-L1 (obtained from R&D) in PBS overnight at 4° C. The wells were then blocked with 2% BSA in PBS (W/V) with 0.05% TWEEN-20 for 1 hour at 37° C. The plates were washed 3 times with PBS/0.05% TWEEN-20 and the compounds were serial diluted (1:5) in dilution medium and added to the ELISA plates. Human PD-1 and biotin 0.3 μg/mL (ACRO Biosystems) were added and incubated for 1 hour at 37° C. then washed 3 times with PBS/0.05% TWEEN-20. A second block was performed with 2% BSA in PBS (W/V)/0.05% TWEEN-20 for 10 min at 37° C. and was washed 3 times with PBS/0.05% TWEEN-20. Streptavidin-HRP was added for 1 hour at 37° C. then washed 3 times with PBS/0.05% TWEEN-20. TMB substrate was added and reacted for 20 min at 37° C. A stop solution (2 N aqueous H2SO4) was added. The absorbance was read at 450 nm using a micro-plate spectrophotometer. In general terms: ELISA stands for enzyme-linked immunosorbent assay.
Sequence of Programmed cell death 1 ligand 1 (Q9NZQ7 whole entry): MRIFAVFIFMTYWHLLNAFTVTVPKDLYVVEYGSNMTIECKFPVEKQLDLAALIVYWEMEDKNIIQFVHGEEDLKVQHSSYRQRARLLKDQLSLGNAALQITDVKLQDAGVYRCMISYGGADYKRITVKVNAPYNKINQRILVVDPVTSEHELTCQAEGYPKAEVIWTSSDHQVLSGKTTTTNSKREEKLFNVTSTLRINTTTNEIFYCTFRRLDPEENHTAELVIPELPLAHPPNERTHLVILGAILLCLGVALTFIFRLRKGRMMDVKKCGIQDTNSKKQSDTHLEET

A word on the pIC50: it is the negative decadic logarithm of the IC50, by convention in mol/L. Read a high pIC50 as a low IC50. `Cc1c(COc2cc3c(cc2Cl)CN[C@@H](C(=O)O)CCCCNC(=O)c2cncc(c2)CO3)cccc1-c1ccccc1` had a pIC50 of more than 7.00.

Molecule `Cc1c(COc2cc3c(cc2Cl)CN[C@H](CO)CCCCNC(=O)c2cncc(c2)CO3)cccc1-c1cccc(OCCCN2CCC(O)CC2)c1C` gave a pIC50 of more than 7.00.

`Cc1c(COc2cc3c(cc2Cl)CN[C@H](C(=O)O)CCCCNC(=O)c2cncc(c2)CO3)cccc1-c1cccc(OCCCN2CC[C@@H](O)C2)c1C`: the pIC50 was more than 7.00.

On to `Cc1c(COc2cc3c(cc2Cl)CN[C@H](C(=O)O)CCCCCCNC(=O)c2cncc(c2)CO3)cccc1-c1cccc(OCCCN2CCC(O)CC2)c1C`, for which the pIC50 is more than 7.00.

`Cc1c(COc2cc3c(cc2Cl)CN[C@H](C(=O)O)CCCCNC(=O)c2cc(C#N)cc(c2)CO3)cccc1-c1cccc(OCCCN2CC[C@@H](O)C2)c1C`: the pIC50 is more than 7.00.

Molecule `Cc1c(COc2cc3c(cc2Cl)CN[C@H](C(=O)O)CCCCNC(=O)c2cc(C#N)cc(c2)CO3)cccc1-c1cccc(OCCCN2CCC(O)CC2)c1C` gave a negative logarithm of the IC50 (pIC50) of more than 7.00.
